Data on 4 compounds can be found in patent US20250222045A1, “BIFIDOBACTERIUM LONGUM SUBSP. INFANTIS, MICROBIAL AGENT AND USE THEREOF” (GUANGZHOU JIYAN COSMETICS TECHNOLOGY CO., LTD., priority 2024, published 2025).

The test system of one assay is suckling pig skin. Briefly: Exfoliation on excised suckling pig skin (Franz cell), total protein of detached keratinocytes. Conditions: 50 μL, 24 h, 32 °C. As for the experimental part: <1> Formulation of cleaning solution (0.1% Triton X-100): 0.1 mL of Triton X-100 was weighed and dissolved in 100 mL of PBS to formulate 0.1% Triton X-100 solution. <2> Formulation of sodium hydroxide solution (12 M): 4.8 g of sodium hydroxide solid was weighed, and added with deionized water to make up to 10 mL, and formulate 12 M sodium hydroxide solution. <1> After being thawed and cleaned, pig skin was fixed between a supply chamber and a receiving chamber of Franz cell, with stratum corneum of the skin facing the supply chamber, and a dermal side facing the receiving chamber. Into the receiving chamber, 7.0 mL of a receiving liquid was added. After suckling pig skin was stretched and fixed well, into the receiving chamber, 1.5 mL of the receiving liquid (PBS) was added through a sample collector, and air was exhausted, so as to make the dermis of the skin be in close contact with the receiving liquid. <2> Samples (as shown in TABLE 24) were added to the skin surface in the supply chamber, where 50 μL of the samples were added to the surface of the pig skin (a PBS buffer solution was added to the surface of the control group as blank control). The samples were evenly spread radially from a central part of the skin towards an edge, and an exposed area of the samples was 3.14 cm^2. Each sample had three parallel replicates. […] Keratinocytes in the cleaning solution were precipitated, supernatant was discarded, and precipitate was re-suspended with 0.5 mL of deionized water. <2> Into the re-suspended liquid, 25 μL of a sodium hydroxide (12 M) solution was added, the keratinocytes were lysed for 30 min in a boiling water bath, and 25 μL of concentrated hydrochloric acid (12 M) was added to neutralize lysis solution. <3> The total protein content was detected according to instructions of a BCA protein assay kit. […] The total protein content in the lysis solution was directly proportional to the quantity of detached keratinocytes. […] GraphPad Prism was applied for plotting, and results were expressed as Mean±SD. Comparison between the groups was statistically analyzed using t-test. […]

For assay [1], the system named is 3D epidermal skin model (EpiKuits®). Briefly: Epidermal atrophy on UVB-irradiated 3D epidermal skin model, tissue morphology H&E, sunburn cells. Conditions: Filtrate 5%, Lysate 5%, Filtrate + lysate 5%, Retinol 0.1%, Bifida ferment lysate 5%; for Sunburn cells: EpiKutis 3D epidermal model, UVB 600 mJ/cm^2, then 24 h, H&E, BC 0, NC 10, WY14643 50 μM. Type of assay: cell-based. On the procedure:
[table] <1> According to test groups, models were transferred into 6-well plates (added with 0.9 mL of an EpiGrowth culture solution of corresponding groups in advance), and numbers of the test groups were marked on the 6-well plates. <2> UVB irradiation (a radiation dosage was 600 mJ/cm^2) was performed on the groups requiring UVB irradiation according to the test groups (as shown in TABLE 40). […] <3> After incubation was finished, test substances remaining on surfaces of the models were cleaned with sterile PBS, and residual liquid inside and outside the models was wiped off with a sterile cotton swab. The models for detection of tissue morphology were fixed using 4% paraformaldehyde. After 24 h of fixation, H&E staining detection was performed, photographs were taken under a microscope and observed, and pictures were collected and analyzed. Inhibition rate/down-regulation rate (%)=(negative control group−sample)/negative control group×100% GraphPad Prism was applied for plotting, and results were expressed as Mean±SD. Comparison between the groups was statistically analyzed using t-test. Statistical analysis was two-tailed. P<0.05 is considered to have a significant difference, and P<0.01 is considered to have an extremely significant difference. (2) Epidermal atrophy: Tissue morphology is physiological structure analysis of appearance of tissues after HE staining. The ability of the test substance to resist UVB can be evaluated by analyzing thickness changes of epidermis and growth of four layers of cells on the surface after use of the test substance.

The next assay has as its system elastin. Briefly: Excised skin tissues, combined UVA and UVB irradiation: elastin (Victoria Blue staining). Conditions: ex vivo skin, 0.1%. As for the experimental part:
(§1) Tissue treatment: Freshly obtained skin tissues were immersed into 75% alcohol to be cleaned for 30 s, and then cleaned in a sterile PBS buffer solution for three times. After the cleaning was finished, the skin was cut into tissue blocks of 24±2 mm^2, with the epidermis facing upwards and the dermis facing downwards, and put into culture moulds; and then the culture moulds were transferred into 6-well plates, with each well being added with 3.7 mL of the culture solution, and cultured in the CO2 incubator (37° C., 5% CO2), with the solution being changed every day.
(§2) Dosing: After the excised skin tissues were cultured for 2 days, irradiation and dosing were started with reference to test groups and corresponding treatment conditions in the table. Irradiation dosages were UVA (30 J/cm^2) and UVB (50 mJ/cm^2). The irradiation was continuously performed for 4 days. After each time of irradiation was completed, the culture solution was replaced with a fresh culture solution, and a dosing treatment was performed. The positive control (VC+VE) was dosed below a liquid surface, and the test sample was does on a surface, with each group being in triplicate. […]
(§3) Statistical analysis of results: GraphPad Prism was applied for plotting, and results were expressed as Mean±SD. Comparison between the groups was statistically analyzed using t-test. […]

A further assay has as its system type IV collagen. Briefly: Excised skin tissues, combined UVA and UVB irradiation: type IV collagen (IHC). The settings on record: ex vivo skin, 0.1%. As for the experimental part:
as §1, §2, §3

In a further assay the test system is type XVII collagen. The assay can be described thus: Excised skin tissues, combined UVA and UVB irradiation: type XVII collagen (IHC). Conditions: ex vivo skin, 0.1%. As for the experimental part:
as §1, §2, §3

The next assay relates to CPD. Briefly: DNA damage repair on UVB-irradiated 3D epidermal skin model, CPD immunohistochemistry. Conditions: Filtrate 5%, Lysate 5%, Filtrate + lysate 5%, Retinol 0.1%, Bifida ferment lysate 5%; for CPD Positive cell Rate (%): BC 0.00%, NC 72.14%, smaller values are better; for CPD fluorescence intensity, Down-regulation Rate: vs NC. Type of assay: cell-based. On the procedure:
<1> According to test groups, models were transferred into 6-well plates (added with 0.9 mL of an EpiGrowth culture solution of corresponding groups in advance), and numbers of the test groups were marked on the 6-well plates.
<2> UVB irradiation (a radiation dosage was 600 mJ/cm^2) was performed on the groups requiring UVB irradiation according to the test groups (as shown in TABLE 40). After the irradiation, a sample working solution was evenly distributed on surfaces of the models, and continued to be incubated in a CO2 incubator (37° C., 5% CO2) for 24 h.
<3> After incubation was finished, test substances remaining on surfaces of the models were cleaned with sterile PBS, and residual liquid inside and outside the models was wiped off with a sterile cotton swab.
The models for detection were fixed using 4% paraformaldehyde. After 24 h of fixation, immunohistochemical detection was performed, photographs were taken under a microscope and observed, and pictures were collected and analyzed.
Inhibition rate/down-regulation rate (%)=(negative control group−sample)/negative control group×100%
GraphPad Prism was applied for plotting, and results were expressed as Mean±SD. Comparison between the groups was statistically analyzed using t-test. Statistical analysis was two-tailed. P<0.05 is considered to have a significant difference, and P<0.01 is considered to have an extremely significant difference.
(1) CPD: When a body is exposed to exogenous UV radiation, DNA damage may occur, and this damage may induce body aging. If such DNA damage is not repaired in time, symptoms such as aging of the body may occur.

A further assay deals with type III collagen. The assay can be described thus: Excised skin tissues, combined UVA and UVB irradiation: type III collagen (IHC). The settings on record: ex vivo skin, 0.1%. On the procedure: as §1, §2, §3
In the next assay the test system is hyaluronic acid. Briefly: Excised skin tissues, combined UVA and UVB irradiation: hyaluronic acid (immunofluorescence). The settings on record: ex vivo skin, 0.1%. As for the experimental part:
as §1, §2, §3

The test system of a further assay is collagen fiber. Briefly: Excised skin tissues, combined UVA and UVB irradiation: collagen fiber (Masson staining). The settings on record: ex vivo skin, 0.1%. On the procedure: as §1
Dosing: After the excised skin tissues were cultured for 2 days, irradiation and dosing were started with reference to test groups and corresponding treatment conditions in the table. Irradiation dosages were UVA (30 J/cm^2) and UVB (50 mJ/cm^2). The irradiation was continuously performed for 4 days. […]
Detection of collagen fiber: the skin tissues having undergone the dosing were fixed using 4% paraformaldehyde. […] Slicing result was recovered, photographed using a microscope, and analyzed using Image-Pro Plus image processing software. […]
as §3

Setting [2] is: BC 0.326, Filtrate 3%, Mandelic acid 5%, Salicylic acid 2%.
Where [3] appears, read: 30 J/cm^2 UVA + 50 mJ/cm^2 UVB, IHC.

As for `O=C(O)C(O)c1ccccc1` (centres unmarked) [Mandelic acid], the “Protein Concentration Mean (exfoliated keratinocytes)” value in the assay with suckling pig skin (setting [2]) is 0.448 mg/mL.

In the case of `CC1=C(/C=C/C(C)=C/C=C/C(C)=C/CO)C(C)(C)CCC1` [Retinol], the Sunburn cells in assay [1] is listed as 0. In addition, the “Sunburn cells, Inhibition Rate” value in assay [1] (vs NC) worked out at 100%. Besides, in the assay on elastin (30 J/cm^2 UVA + 50 mJ/cm^2 UVB, Victoria staining), the “Elastin Relative IOD Mean” value is 1.19. In the assay with elastin (UVA + UVB, vs negative control), the “Elastin Increase Rate” value is reported as 260.61%. Also, in the assay on type IV collagen (setting [3]), the “Type IV collagen Relative IOD/area Mean” value was found to be 0.76. Further, in the assay with type IV collagen (UVA + UVB, vs negative control), the “Type IV collagen Increase Rate” value amounted to 26.67%. The “Type XVII collagen Relative IOD Mean” value in the assay on type XVII collagen (setting [3]) was determined as 0.69. Besides, in the assay with type XVII collagen (UVA + UVB, vs negative control), the “Type XVII collagen Increase Rate” value is reported as 176.00%. In addition, the “CPD Positive cell Rate (%)” value was determined as 58.31% in the assay with CPD (EpiKutis 3D epidermal model, UVB 600 mJ/cm^2, then 24 h, PC WY14643 50 μM) and 58.31% in the assay with CPD (EpiKutis 3D epidermal model, UVB 600 mJ/cm^2, then 24 h, PC WY14643 50 μM, listed as retinol). Further, in the assay with CPD (EpiKutis 3D epidermal model, UVB 600 mJ/cm^2, then 24 h, NC 227349.69, PC WY14643 50 μM), the “CPD fluorescence intensity, IOD Mean” value was 20503.43. Besides, the “CPD fluorescence intensity, Down-regulation Rate” value with CPD and with CPD (listed as retinol) was 90.98% in each case. In the assay on type III collagen (setting [3]), the “Type III collagen Relative IOD Mean” value stood at 0.76. Further, the “Type III collagen Increase Rate” value with type III collagen (UVA + UVB, vs negative control) amounted to 28.81%. In addition, the “Hyaluronic acid Relative IOD Mean” value in the assay on hyaluronic acid (30 J/cm^2 UVA + 50 mJ/cm^2 UVB, IF) was determined as 0.69. The “Hyaluronic acid Increase Rate” value in the assay with hyaluronic acid (UVA + UVB, vs negative control) was determined as 56.82%. Also, in the assay on collagen fiber (30 J/cm^2 UVA + 50 mJ/cm^2 UVB, Masson staining), the “Collagen fiber Relative Area Mean” value is given as 0.96. In the assay on collagen fiber (UVA + UVB, vs negative control), the “Collagen fiber Increase Rate” value was 50.00%.

With `Cc1cccc(Nc2cc(Cl)nc(SCC(=O)O)n2)c1C` [WY14643], the Sunburn cells in [1] came out at 3.

As to `O=C(O)c1ccccc1O` [salicylic acid], the “Protein Concentration Mean (exfoliated keratinocytes)” value is given as 0.347 mg/mL with suckling pig skin (setting [2]) and 0.555 mg/mL with suckling pig skin (BC 0.326, PC 10% salicylic acid).
